The source of these data is PMC7119063 (Bioorganic & Medicinal Chemistry, 2005).

Entries after “also recorded” stand apart in the source; their conditions may differ.

Assay [1] deals with SARS-CoV. Particulars: cited from earlier work.
The test system of assay [2] is SARS-CoV. In kind it is cell-based.
The subject of assay [3] is human rhinovirus (HRV) 3C protease. Particulars: cited from earlier work.
The target of another assay is SARS-CoV 3CL protease (Severe acute respiratory syndrome coronavirus, UniProt P0C6X7). The format is biochemical.

As to `CC(C)[C@@H]1NC(=O)[C@H](C)OC(=O)[C@@H](C(C)C)NC(=O)[C@@H](C(C)C)OC(=O)[C@H](C(C)C)NC(=O)[C@H](C)OC(=O)[C@@H](C(C)C)NC(=O)[C@@H](C(C)C)OC(=O)[C@H](C(C)C)NC(=O)[C@H](C)OC(=O)[C@@H](C(C)C)NC(=O)[C@@H](C(C)C)OC1=O` [valinomycin], the EC50 with SARS-CoV [1] was 850 nM.
Consider `CCOC(=O)C=CC(CC1CCNC1=O)NC(=O)C(CC(=O)C(NC(=O)c1cc(C)on1)C(C)C)Cc1ccc(F)cc1` (centres unmarked) [Compound 1a, Ethyl 4-[2-(4-fluorobenzyl)-6-methyl-5-(5-methyl-3-isoxazolyl)carbonylamino-1,4-dioxoheptylamino]-5-(2-oxo-3-pyrrolidinyl)-2-pentenoate], for which, in the assay on SARS-CoV [2], the “concentration at which active as anti-SARS agent (protection from CPE)” value was “inactive”. The “inhibition of HRV 3C protease (in words)” value in assay [3] is “potent inhibitor”. The “inhibitory activity against SARS-CoV 3CL protease (in words)” value on SARS-CoV 3CL protease is “no inhibitory activity; also recorded: inactive”. The “activity to the SARS-CoV in a cell-based assay” value with SARS-CoV [1] is “inactive”.

Broadly, the EC50 is the concentration giving half of the maximal effect.
